Test results reported in patent US9238039B2, “Pyrazolo[1,5-A]pyrimidines for antiviral treatment” (Gilead Sciences, Inc., priority 2010, dated 2016).

Tested on: RSV strain A2
Test: RSV antiviral cytoprotection assay in Hep2 cells (96-well and 384-well format, Cell TiterGlo read-out)
Type: cell-based, Respiratory Syncytial Virus (RSV)
Conditions: human respiratory syncytial virus; for inhibition at 0.5 µM: HEp-2, 0.5 uM; for EC50: HEp-2, RSV-induced cytopathic effects, Hep2 cells, class symbols
[1] = RSV-induced cytopathic effect in Hep2 cells, calculated from fitted dose response curve, normalized to 0% and 100%

SMILES | inhibition at 0.5 µM [1] | EC50 | inhibition at 1 µM (HEp-2, 1 uM, RSV-induced cytopathic effect in Hep2 cells, calculated from fitted dose response curve, normalized to 0% and 100%)
CS(=O)(=O)Nc1ccc(Cl)cc1C(=O)N1CCCC[C@H]1c1cc2nc(N3CC(N)C3)ccn2n1 [Compound 53] | 98% | 0.1 to 100 nM | –
C[C@H]1CC[C@@H](c2cc3nc(N4CCC4)cc(N4CCOCC4)n3n2)N(C(=O)c2cc(Cl)ccc2NS(C)(=O)=O)C1 [Compound 143] | 100% | 0.1 to 100 nM | –
Cc1cn2nc([C@@H]3CCCCN3C(=O)c3cc(Cl)ccc3NS(C)(=O)=O)cc2nc1N1CC(OC(=O)CCC(=O)O)C1 [Compound 144] | 99% | 0.1 to 100 nM | –
Cc1cn2nc([C@@H]3CCCCN3C(=O)c3cc(Cl)ccc3NS(C)(=O)=O)cc2nc1N1CC(C)C1 [Compound 129] | 100% | 0.1 to 100 nM | –
Cc1cc(C2CC2)nc2cc([C@@H]3CCCCN3C(=O)C(c3ccccc3)N(C)C)nn12 (stereo partly shown) [Compound 239] | 36% | 101 to 1000 nM | –
CS(=O)(=O)Nc1ccc(Cl)cc1C(=O)N1CCCC[C@H]1c1cc2nc(N3CCC3)cc(N3CCN(CC(F)(F)F)CC3)n2n1 [Compound 84] | 100% | 0.1 to 100 nM | –
Cc1ccc(NS(C)(=O)=O)c(C(=O)N2CCCC[C@H]2c2cc3nc(C)c(C)c(N4CCOCC4)n3n2)c1 [Compound 104] | 100% | 0.1 to 100 nM | –
CS(=O)(=O)Nc1ccc(Cl)cc1C(=O)N1CCCC[C@H]1c1cc2nc(N3CCC3)cc(N3CCN[C@@H](C(F)F)C3)n2n1 [Compound 253] | 88% | 0.1 to 100 nM | –
Cc1ccc(NS(C)(=O)=O)c(C(=O)N2CCCC[C@H]2c2cc3nc(N4CC[C@H](N)C4)c(C)cn3n2)c1 [Compound 190] | 100% | 0.1 to 100 nM | –
Cc1cn2nc([C@@H]3CCCCN3C(=O)c3nc4ccccn4c3F)cc2nc1N1CC[C@H](N)C1 [Compound 363] | 99% | 0.1 to 100 nM | –
Cc1cn2nc([C@@H]3CCCCN3C(=O)c3ccccc3)cc2nc1N1CC[C@H](N)C1 [Compound 412] | 100% | 0.1 to 100 nM | –
CN1CCCN(c2cc(N3CCC3)nc3cc([C@@H]4CCCCN4C(=O)c4cc(Cl)ccc4NS(C)(=O)=O)nn23)CC1 [Compound 173] | 100% | 0.1 to 100 nM | –
Cc1cn2nc([C@@H]3CCCCN3C(=O)c3c(C)cccc3NS(C)(=O)=O)cc2nc1N1CCC1 [Compound 225] | 100% | 0.1 to 100 nM | –
CCn1cc(C(=O)N2CCCC[C@H]2c2cc3nc(N4CC[C@H](N)C4)c(C)cn3n2)cn1 [Compound 281] | 37% | 101 to 1000 nM | –
CCc1ccc(NS(C)(=O)=O)c(C(=O)N2CCCC[C@H]2c2cc3[nH]c(C)c(C)c(=O)n3n2)c1 [Compound 116] | 98% | 0.1 to 100 nM | –
Cc1nc2cc([C@@H]3CCCCN3C(=O)c3ccccc3NS(C)(=O)=O)nn2c(N(C)C)c1C [Compound 100] | 96% | 0.1 to 100 nM | –
Cc1ccc(NS(C)(=O)=O)c(C(=O)N2CCCC[C@H]2c2cc3nc(C)cc(N(C)C)n3n2)c1 [Compound 39] | 100% | 0.1 to 100 nM | –
Cc1ccc(NS(C)(=O)=O)c(C(=O)N2CCCC[C@H]2c2cc3nc(N4CCC4)c(C)cn3n2)c1 [Compound 189] | 100% | 0.1 to 100 nM | –
CS(=O)(=O)Nc1ccc(Cl)cc1C(=O)N1CCCCCC1c1cc2nc(N3CCC3)cc(N3CCOCC3)n2n1 (stereo not shown) [Compound 177] | 99% | 0.1 to 100 nM | –
CC(C)(C)OC(=O)N1CCN(c2cc(C3CC3)nc3cc([C@@H]4CCCCN4C(=O)c4cc(Cl)ccc4NS(C)(=O)=O)nn23)CC1 [Compound 226] | 100% | 0.1 to 100 nM | –
CN(C)CCN(C)c1cc(N2CC(O)C2)nc2cc([C@@H]3CCCCN3C(=O)c3cc(Cl)ccc3NS(C)(=O)=O)nn12 [Compound 55] | 100% | 0.1 to 100 nM | –
Cc1[nH]c2cc([C@@H]3CCCCN3C(=O)c3ccccc3NC(=O)C3CC3)nn2c(=O)c1C [Compound 14] | 96% | 0.1 to 100 nM | 98%
Cc1cccc(C(=O)N2CCCC[C@H]2c2cc3nc(N4CC[C@H](C#N)C4)c(C)cn3n2)c1 [Compound 152] | 100% | 0.1 to 100 nM | –
Cc1cn2nc([C@@H]3CCCCN3C(=O)c3cc(Cl)ccc3NS(C)(=O)=O)cc2nc1-c1ccccc1 [Compound 134] | 98% | 0.1 to 100 nM | –

SMILES | inhibition at 0.5 µM [1] | EC50 | inhibition at 1 µM (HEp-2, 1 uM, RSV-induced cytopathic effect in Hep2 cells, calculated from fitted dose response curve, normalized to 0% and 100%)
Cc1cn2nc([C@@H]3CCCCN3C(=O)c3nnn(C)c3C)cc2nc1N1CC[C@H](N)C1 [Compound 285] | 100% | 0.1 to 100 nM | –
Cc1cn2nc([C@@H]3CCCCN3C(=O)c3cc(Cl)ccc3NS(C)(=O)=O)cc2nc1N1CC(OC(=O)CN)C1 [Compound 172] | 100% | 0.1 to 100 nM | –
CS(=O)(=O)Nc1ccc(Cl)cc1C(=O)N1CCCC[C@H]1c1cc2nc(N3CCC3)ccn2n1 [Compound 43] | 100% | 0.1 to 100 nM | –
Cc1cn2nc([C@@H]3CCCCN3C(=O)c3cccc4c3OCC4)cc2nc1N1CC[C@H](N)C1 [Compound 317] | 100% | 0.1 to 100 nM | –
Cc1cn2nc([C@@H]3CCCCN3C(=O)c3ccn(CC(F)F)n3)cc2nc1N1CC[C@H](N)C1 [Compound 356] | 100% | 0.1 to 100 nM | –
Cc1cn2nc([C@@H]3CCCCN3C(=O)c3cccn3C)cc2nc1N1CC[C@H](N)C1 [Compound 261] | 81% | 101 to 1000 nM | –
Cc1ccc(C(=O)N2CCCC[C@H]2c2cc3nc(N4CC[C@H](N)C4)c(C)cn3n2)c(F)c1 [Compound 298] | 21% | 101 to 1000 nM | –
Cc1cn2nc([C@@H]3CCCCN3C(=O)c3cnc(Cl)cn3)cc2nc1N1CC[C@H](N)C1 [Compound 309] | 100% | 0.1 to 100 nM | –
Cc1cn2nc([C@@H]3CCCCN3C(=O)c3cc(Cl)ncc3Cl)cc2nc1N1CC[C@H](N)C1 [Compound 395] | 100% | 0.1 to 100 nM | –
Cc1cc(C2CC2)nc2cc([C@@H]3CCCCN3C(=O)[C@](C)(NS(C)(=O)=O)c3ccccc3)nn12 [Compound 240] | 71% | 101 to 1000 nM | –
Cc1ccc(NS(C)(=O)=O)c(C(=O)N2CCCC[C@H]2c2cc3nc(C)c(C)c(-c4ccccc4)n3n2)c1 [Compound 86] | 99% | 0.1 to 100 nM | –
Cc1cn2nc([C@@H]3CCCCN3C(=O)c3cc(Cl)ccc3NS(C)(=O)=O)cc2nc1N1CC(OC(=O)[C@@H](N)C(C)C)C1 [Compound 187] | 100% | 0.1 to 100 nM | –
CC(=O)Nc1c(C)c(C)nc2cc([C@@H]3CCCCN3C(=O)c3cc(C)ccc3NS(C)(=O)=O)nn12 [Compound 88] | 98% | 0.1 to 100 nM | –
Cc1ccc(NS(C)(=O)=O)c(C(=O)N2CCC(C(F)(F)F)CC2c2cc3[nH]c(C)c(C)c(=O)n3n2)c1 (stereo not shown) [Compound 251] | 73% | 101 to 1000 nM | –
Cc1cn2nc([C@@H]3CCCCN3C(=O)c3cccc(Cl)n3)cc2nc1N1CC[C@H](N)C1 [Compound 305] | 100% | 0.1 to 100 nM | –
CCc1ocnc1C(=O)N1CCCC[C@H]1c1cc2nc(N3CC[C@H](N)C3)c(C)cn2n1 [Compound 284] | 97.8% | 0.1 to 100 nM | –
C[C@@H]1CN(c2cc(N3CC(O)C3)nc3cc([C@@H]4CCCCN4C(=O)c4cc(Cl)ccc4NS(C)(=O)=O)nn23)C[C@H](C)O1 [Compound 108] | 100% | 0.1 to 100 nM | –
Cc1cn2nc([C@@H]3CCCCN3C(=O)c3cc(Cl)ccc3NS(C)(=O)=O)cc2nc1N1C[C@H](O)[C@@H](O)C1 [Compound 197] | 100% | 0.1 to 100 nM | –
CS(=O)(=O)Nc1ccc(Cl)cc1C(=O)N1CCCC[C@H]1c1cc2nc(N3CC(F)C3)cc(N3CCOCC3)n2n1 [Compound 72] | 98% | 0.1 to 100 nM | –
C[C@@H]1CN(c2cc(N3CCC3)nc3cc([C@@H]4CCCCN4C(=O)c4cc(Cl)ccc4NS(C)(=O)=O)nn23)CCN1 [Compound 154] | 100% | 0.1 to 100 nM | –
Cc1cn2nc([C@@H]3CCCCN3C(=O)c3cc(Cl)ccc3NS(C)(=O)=O)cc2nc1N1CC[C@@H](N)C1 [Compound 232] | 100% | 0.1 to 100 nM | –
CCCn1cc(Cl)c(C(=O)N2CCCC[C@H]2c2cc3nc(N4CC[C@H](N)C4)c(C)cn3n2)n1 [Compound 381] | 100% | 0.1 to 100 nM | –
Cc1cn2nc([C@@H]3CCCCN3C(=O)c3cnco3)cc2nc1N1CC[C@H](N)C1 [Compound 259] | 28% | 1000 to 10000 nM | –
Cc1cc(C2CC2)nc2cc([C@@H]3CCCCN3C(=O)c3cc(Br)ccc3NS(C)(=O)=O)nn12 [Compound 122] | 99% | 0.1 to 100 nM | –
